Experimental findings from paper PMC11121672, “Screening of Small-Molecule Libraries Using SARS-CoV-2-Derived Sequences Identifies Novel Furin Inhibitors” (International Journal of Molecular Sciences, 2024) are described below.

SMILES strings stand for the structures.

T1 sequence (P09958 108-715): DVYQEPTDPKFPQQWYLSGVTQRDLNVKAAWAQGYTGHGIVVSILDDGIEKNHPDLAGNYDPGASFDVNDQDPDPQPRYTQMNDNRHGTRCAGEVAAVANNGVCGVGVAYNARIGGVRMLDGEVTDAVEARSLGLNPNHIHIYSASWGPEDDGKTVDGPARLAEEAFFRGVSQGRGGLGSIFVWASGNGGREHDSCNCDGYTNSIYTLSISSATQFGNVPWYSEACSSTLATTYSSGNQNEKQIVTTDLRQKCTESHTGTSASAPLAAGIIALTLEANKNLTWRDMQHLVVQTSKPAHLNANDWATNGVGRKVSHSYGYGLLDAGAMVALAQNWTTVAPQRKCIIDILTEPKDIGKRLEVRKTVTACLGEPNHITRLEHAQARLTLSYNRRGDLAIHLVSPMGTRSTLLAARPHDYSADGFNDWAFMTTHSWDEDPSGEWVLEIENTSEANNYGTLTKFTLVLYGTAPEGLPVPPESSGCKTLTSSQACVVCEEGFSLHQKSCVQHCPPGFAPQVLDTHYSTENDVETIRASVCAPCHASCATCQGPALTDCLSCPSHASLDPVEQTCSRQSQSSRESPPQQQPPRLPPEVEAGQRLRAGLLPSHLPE

One assay has as its target T1, Furin (Homo sapiens, UniProt P09958).
T1 construct: soluble Furin (sFur), truncated before its transmembrane domain (BTMD)
The assay can be described thus: fluorogenic AMC peptide cleavage assay, […] dose response, not sigmoidal. The format is cell-based.
On to `Cc1ccc(Cl)cc1N(CCC(=O)O)c1nc2c(s1)C(=O)c1ccccc1C2=O` [P5, 3-((5-Chloro-2-methylphenyl)(4,9-dioxo-4,9-dihydronaphtho[2,3-d]thiazol-2-yl)amino)propanoic acid], for which the “fluorogenic AMC peptide cleavage assay, 2.5-100 μg/mL dose response, not sigmoid” value was “P3, P5, P7, P9, P13, and P16—were confirmed as novel Furin inhibitors, showing typical dose-dependent activity”.

Turning to `O=C(O)CCN(c1ccc(Cl)cc1)c1nc2c(s1)C(=O)c1ccccc1C2=O` [P9, 3-((4-Chlorophenyl)(4,9-dioxo-4,9-dihydronaphtho[2,3-d]thiazol-2-yl)amino)propanoic acid], the “fluorogenic AMC peptide cleavage assay, 2.5-100 μg/mL dose response, not sigmoid” value was “P3, P5, P7, P9, P13, and P16—were confirmed as novel Furin inhibitors, showing typical dose-dependent activity”.

As to `CCOC(=O)C=C(C)n1c2c(=O)c3ccccc3c(=O)c=2oc2ccc([N+](=O)[O-])cc21` [P13, Ethyl 3-(2-nitro-6,11-dioxo-6,11-dihydro-12H-benzo[b]phenoxazin-12-yl)but-2-enoate], the “fluorogenic AMC peptide cleavage assay, 2.5-100 μg/mL dose response, not sigmoid” value is “P3, P5, P7, P9, P13, and P16—were confirmed as novel Furin inhibitors, showing typical dose-dependent activity”.

The target in a further assay is T1, Furin. The assay is described as follows: fluorogenic AMC peptide cleavage assay, soluble furin in conditioned HEK-293T medium without further purification. It counts as biochemical.
By IC50 is commonly meant the concentration that gives 50% inhibition. A higher IC50 goes with weaker potency. In turn, `Cc1ccc(N(CCC(=O)O)C2=NC(=O)C(=Cc3ccc(Br)s3)S2)cc1Cl` [P3, 3-((5-((5-Bromothiophen-2-yl)methylene)-4-oxo-4,5-dihydrothiazol-2-yl)(3-chloro-4-methylphenyl)amino)propanoic acid] had an IC50 of 35 µM.

In turn, `CN(C)c1ccc(C=C2SC(N(CCC(=O)O)c3ccc(Cl)cc3)=NC2=O)cc1` [P7, 3-((4-Chlorophenyl)(5-(4-(dimethylamino)benzylidene)-4-oxo-4,5-dihydrothiazol-2-yl)amino)propanoic acid] had an IC50 of 62 µM. Against the preceding compound, the IC50 is about 1.8-fold higher.

For `Cc1ccc(N(CCC(=O)O)C2=NC(=O)C(=Cc3cccs3)S2)cc1Cl` [P16, 3-((3-Chloro-4-methylphenyl)(4-oxo-5-(thiophen-2-ylmethylene)-4,5-dihydrothiazol-2-yl)amino)propanoic acid], the IC50 is 79 µM.
